From patent publication US7868022B2, “2-amino-quinoline derivatives useful as inhibitors of β-secretase (BACE)” (Janssen Pharmaceutica NV, priority 2006, dated 2011)

Assays:
Format in all cases: biochemical
[1] = biological target: human BACE-1 (Homo sapiens, UniProt P56817); assay: In Vitro BACE Assay run by CEREP (Example 19); settings: recombinant enzyme; for inhibition at 10 µM: pH 4.5, 10.0 μM compound; for IC50: pH 4.5; for inhibition at 1 µM: pH 4.5, 1.0 μM compound
Experimental: This assay was run by CEREP (Catalog Ref. 761-B, Referred to SOP No. 1C131; ERMOLIEFF, J., LOY, J. A., KOELSCH, G. and TANG, J., Proteolytic activation of recombinant pro-memapsin 2 (pro-BACE) studied with new fluorogenic substrates, Biochemistry, (2000) Vol. 39, p. 12450).
More specifically the assay, run at 50 μL in a 96 well plate, evaluated the effect of test compound on the activity of the human BACE-1 quantified by measuring the formation of Mca-S-E-V—N-L-NH2 from Mca-S-E-V—N-L-D-A-E-F—R—K(Dnp)-R—R—NH2, using a recombinant enzyme.
The test compound, reference compound or water (control) was added to a buffer containing 0.09 M sodium acetate (pH 4.5) and 0.25 μg BACE-1. Compound interference with the fluorimetric detection method due to autofluorescence was then checked by measurements at the wavelengths defined to evaluate the enzyme activity. Thereafter, the reaction was initiated by adding 7.5 μM of the substrate Mca-S-E-V—N-L-D-A-E-F—R—K(Dnp)-R—R—NH2 and the mixture was incubated for 60 min at 37° C. For control basal measurement, the substrate was omitted from the reaction mixture. Immediately after the incubation, the fluorescence intensity emitted by the reaction product Mca-S-E-V—N-L-NH2 was measured at λex=320 nm and λem=405 nm using a microplate reader (Ultra, Tecan). The standard inhibitory reference compound was OM99-2, which was tested in each experiment at several concentrations to obtain an inhibition curve from which its IC50 value was calculated.

[2] = biological target: T1, β-secretase (BACE) (Homo sapiens, UniProt P56817); assay: In Vitro BACE FS1 % Inhibition Assay (Example 15); settings: FS1 substrate
T1 construct: purchased Panvera
Experimental: (§1) The following reagents were used in this assay: sodium acetate, PEG8000 (Sigma), DMSO, HEPES, FS1 substrate [R(AedensE)[…]-(DabcylK)R], β-secretase (BACE) (Panvera), and 96-well plate (HE microplate, Molecular Devices).
(§2) The following assay buffers were prepared and used in this assay: (1) enzyme assay buffer (0.05 M sodium acetate, pH5, 0.1% PEG8000 (w/v)), (2) substrate assay buffer (0.05 M sodium acetate, pH5), and (3) compound vehicle (30% DMSO in 50 mM HEPES, pH 7.4).
(§3) The FS1-substrate stock solution was prepared in DMSO as a 10 mg/mL solution. The FS1-substrate working solution was prepared by diluting the 10 mg/mL stock solution with substrate assay buffer to a final concentration of 300 μg/mL. The β-secretase (BACE) working solution was prepared by diluting a 0.83 mg/mL BACE stock solution with enzyme assay buffer to a final concentration of 4 μg/mL.
Test compounds were dissolved in DMSO to 10 mM. Compounds were further diluted in vehicle to various concentrations in the range of 405 μM to 4.05 μM (13.5× final compound concentration in screening plate).
The screening procedure for this assay was as follows: 15 μL of BACE working solution was pipetted into each well of a 96-well plate. To each well was then pipetted 2 μL of test compound at the selected concentration. Test compound and BACE were then mixed with a pipettor and incubated for 20 min at room temperature. To each well was then added 10 μL of the FS1 substrate working solution. The plates were then incubated for 1 hour at room temperature. The fluorescence for each well was then measured on an LJL analyst (Ex 360 nm/Em 530 nm).
The procedure for the blank (negative control) was as follows. 15 μL of assay buffer was pipetted into each well to be used as a blank control. To each well was then added 2 μL of vehicle and 10 μL of FS1-substrate working solution. The plates were then incubated for 1 hour at room temperature. The fluorescence was measured on an LJL analyst (Ex 360 nm/Em 530 nm).
The procedure for the positive control was as follows: 15 μL of BACE working solution was pipetted into each well to be used as a positive control. To each well was then pipetted 2 μL of vehicle. Vehicle and BACE were then mixed with a pipettor and incubated for 20 min at room temperature. To each well was then added 10 μL of the FS1 substrate working solution. The plates were then incubated for 1 hour at room temperature. The fluorescence (Fl) was then measured on an LJL analyst (Ex 360 nm/Em 530 nm).
For test compounds, % inhibition was determined at each concentration as follows:
% Inhibition values of less than 30% were indistinguishable from control and are listed as ≦30% in the Table below. % Inhibition values greater than 100% were indistinguishable from 100% within the error of the measurement.

[3] = biological target: T1, β-secretase (BACE); assay: In Vitro BACE Assay, Ki (Example 16); settings: FS1 substrate, pH5
Experimental: as §1, §2, §3
Test compounds were dissolved in DMSO at 10 mM.
The procedure for this assay was as follows: 15 μL of BACE working solution was pipetted into each well of a 96-well plate. To each well was then pipetted 2 μL of test compound at the selected concentration. Test compound and BACE were then mixed with a pipettor and incubated for 20 min at room temperature. […] The fluorescence for each well was then measured on a Polarstar fluorometer (Ex 390 nm/Em 520 nm) for 20 min at room temperature, reading fluorescence at 1 min intervals.
The procedure for the positive control was as follows: 15 μL of BACE working solution was pipetted into each well to be used as a positive control. […] The fluorescence was then measured on a Polarstar fluorometer (Ex 390 nm/Em 520 nm) for 20 min at room temperature, reading fluorescence at 1 min intervals.
For test compounds, Ki inhibition was determined as follows: For each compound concentration and positive control, rate of cleavage of substrate (Vi, where i=compound concentration in μM) was determined as Δ Fluorescence/Δ time (min). […] The Ki was then determined by fitting the following equation to the graph of [I] vs Vi Y=aVmax/(50+24*(1+X/Ki)),

T1 sequence (P56817 46-501): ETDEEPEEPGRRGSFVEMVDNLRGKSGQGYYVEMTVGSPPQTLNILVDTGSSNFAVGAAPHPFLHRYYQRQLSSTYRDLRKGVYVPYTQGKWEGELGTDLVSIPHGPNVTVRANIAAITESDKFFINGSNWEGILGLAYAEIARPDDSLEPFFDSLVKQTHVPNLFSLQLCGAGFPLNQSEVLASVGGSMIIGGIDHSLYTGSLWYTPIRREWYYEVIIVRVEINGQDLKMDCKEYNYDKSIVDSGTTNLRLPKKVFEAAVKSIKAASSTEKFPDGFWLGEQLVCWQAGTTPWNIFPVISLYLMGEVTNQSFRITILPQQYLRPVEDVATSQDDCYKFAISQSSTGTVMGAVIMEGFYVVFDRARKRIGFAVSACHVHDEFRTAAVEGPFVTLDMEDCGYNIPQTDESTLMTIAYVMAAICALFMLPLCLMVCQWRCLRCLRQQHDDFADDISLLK
human BACE-1, sequence (P56817 46-501): as above

SMILES | inhibition at 10 µM [1] [%] | IC50 [1] [nM] | inhibition at 1 µM [1] [%] | other results
CC(C)C(CO)NCCCC(c1cc2cc(Oc3ccccc3)ccc2nc1N)C1CCOCC1 (stereo not shown) [compound 96] | 83 | 1700 | – | –
Nc1nc2ccc(Oc3ccccc3)cc2cc1C(CCC(=O)NC1C2CC3CC(C2)CC1C3)C1CCCCC1 (stereo not shown) [compound 15] | – | – | – | inhibition at 0.3 µM ([2]; 0.3 μM compound): 43%; inhibition at 1 µM ([2]; 1 μM compound): 58%; inhibition at 3 µM ([2]; 3 μM compound): 78%; Ki [3]: 280 nM
CC(C)(C)c1cc(CCC(c2cc3cc(Oc4ccccc4)ccc3nc2N)C2CCOCC2)on1 (stereo not shown) [compound 156] | – | 310 | 85 | –
COc1cc2nc(N)c(C(CCC(=O)N(CCN3CCOCC3)C3CCCCC3)C3CCOCC3)cc2cc1Oc1ccccc1 (stereo not shown) [compound 107] | 89 | 360 | – | –
CCOC(=O)C(COCc1ccccc1)NCCCC(c1cc2cc(Oc3ccccc3)ccc2nc1N)C1CCOCC1 (stereo not shown) [compound 89] | 85 | 690 | – | –
CC(C)(C)c1cc(CC(c2cc3cc(Oc4ccccc4)ccc3nc2N)C2CCOCC2)on1 (stereo not shown) [compound 152] | – | 560 | 53 | –
Nc1nc2ccc(Oc3ccccc3)cc2cc1C(CCC(=O)N(CCO)C1CCCCC1)C1CCOCC1 (stereo not shown) [compound 50] | – | 740 | 87 | –
CN(CC1CCCCC1)C(=O)CC[C@H](c1cc2cc(Oc3ccccc3)ccc2nc1N)C1CCOCC1 [compound 84] | – | 360 | 96 | –
Nc1nc2ccc(Oc3ccccc3)cc2cc1[C@@H](CCC(=O)NCC1CC1)C1CCOCC1 [compound 78] | – | 340 | 75 | –
CCOc1cc2nc(N)c(C(CCC(=O)NCCC(C)(C)C)C3CCOCC3)cc2cc1Oc1ccccc1 (stereo not shown) [compound 102] | 97 | 270 | – | –
COc1cc2nc(N)c(C(CCC(=O)N(C)C3CCCCC3)C3CCOCC3)cc2cc1Oc1ccccc1 (stereo not shown) [compound 101] | 85 | 290 | – | –
CN(C(=O)CCCC(c1cc2cc(Oc3ccccc3)ccc2nc1N)C1CCCCC1)C1CCCCC1 (stereo not shown) [compound 40] | – | 650 | 54 | inhibition at 0.3 µM ([1]; pH 4.5, 0.3 μM compound): 13%
CC(C)(C)CCNC(=O)CC[C@H](c1cc2cc(Oc3ccccc3)ccc2nc1N)C1CCOCC1 [compound 79] | – | 290 | 89 | –
Nc1nc2ccc(Oc3ccccc3)cc2cc1C(CCCC(=O)N(CCN1CCOCC1)C1CCCCC1)C1CCOCC1 (stereo not shown) [compound 90] | 94 | 1700 | – | –
Nc1nc2ccc(Oc3ccccc3)cc2cc1CCC(=O)NC1C2CC3CC(C2)CC1C3 (stereo not shown) [compound 2] | – | – | – | inhibition at 0.3 µM ([2]; 0.3 μM compound): 45%; inhibition at 1 µM ([2]; 1 μM compound): 78%; inhibition at 3 µM ([2]; 3 μM compound): 107%; Ki [3]: 230 nM
Nc1nc2ccc(Oc3ccccc3)cc2cc1C(CCC(=O)NC1C2CC3CC(C2)CC1C3)C1CCOCC1 (stereo not shown) [compound 24] | – | – | – | inhibition at 0.3 µM ([2]; 0.3 μM compound): 56%; inhibition at 1 µM ([2]; 1 μM compound): 103%; inhibition at 3 µM ([2]; 3 μM compound): 132%; Ki [3]: 66 nM

SMILES | inhibition at 10 µM [1] [%] | IC50 [1] [nM] | inhibition at 1 µM [1] [%] | other results
COc1cc2nc(N)c(C(CCCN(CCN3CCOCC3)C3CCCCC3)C3CCOCC3)cc2cc1Oc1ccccc1 (stereo not shown) [compound 108] | 95 | 360 | – | –
Nc1nc2ccc(Oc3ccccc3)cc2cc1C(CCCC(=O)N(CCN1CCCC1)C1CCCCC1)C1CCOCC1 (stereo not shown) [compound 91] | 86 | 1100 | – | –
COc1cc2nc(N)c(C(CCC(=O)NCCC(C)(C)C)C3CCOCC3)cc2cc1Oc1ccccc1 (stereo not shown) [compound 100] | 72 | 370 | – | –
CC(C)(C)CCNC(=O)CCC[C@H](c1cc2cc(Oc3ccccc3)ccc2nc1N)C1CCOCC1 [compound 82] | – | 210 | 85 | –
CN(CCC[C@H](c1cc2cc(Oc3ccccc3)ccc2nc1N)C1CCOCC1)CC1CCCCC1 [compound 85] | 98 | 340 | – | –
Nc1nc2ccc(Oc3ccccc3)cc2cc1C(CCc1cn(C23CC4CC(CC(C4)C2)C3)nn1)C1CCOCC1 (stereo not shown) [compound 155] | – | 2200 | 67 | –
Cn1ccnc1CN(CCCC(c1cc2cc(Oc3ccccc3)ccc2nc1N)C1CCOCC1)C1CCCCC1 (stereo not shown) [compound 94] | 95 | 82 | – | –
Cn1ccnc1CN(CCCC(c1cc2cc(Oc3ccccc3)ccc2nc1N)C1CCOCC1)CCC(C)(C)C (stereo not shown) [Example 11, 3-[4-[(3,3-dimethyl-butyl)-(1-methyl-1H-imidazol-2-ylmethyl)-amino]-1-(tetrahydro-pyran-4-yl)-butyl]-6-phenoxy-quinolin-2-ylamine] | – | – | – | % Inhibition @ 0.3 μM ([2]; 0.3 μM compound): −6%; % Inhibition @ 1 μM ([2]; 1 μM compound): 5%; % Inhibition @ 3 μM ([2]; 3 μM compound): 81%
CC(C)(C)CCN(CCCC(c1cc2cc(Oc3ccccc3)ccc2nc1N)C1CCOCC1)CCN1CCCC1 (stereo not shown) [compound 93] | 95 | 86 | – | –
CC(C)(C)n1cc(CC(c2cc3cc(Oc4ccccc4)ccc3nc2N)C2CCOCC2)nn1 (stereo not shown) [compound 150] | – | 3300 | 12 | –
COC(=O)C(COCc1ccccc1)NCCCC(c1cc2cc(Oc3ccccc3)ccc2nc1N)C1CCOCC1 (stereo not shown) [compound 95] | 95 | 120 | – | –
Nc1nc2ccc(Oc3ccccc3)cc2cc1C(Cc1cn(C23CC4CC(CC(C4)C2)C3)nn1)C1CCOCC1 (stereo not shown) [compound 153] | – | 670 | 46 | –
Cn1ccnc1CN(CCC(C)(C)C)C(=O)CC[C@H](c1cc2cc(Oc3ccccc3)ccc2nc1N)C1CCOCC1 [compound 86] | – | 220 | 100 | –
CC(C)(C)Cc1cc(CC(c2cc3cc(Oc4ccccc4)ccc3nc2N)C2CCOCC2)on1 (stereo not shown) [compound 151] | – | 310 | 90 | –
Cn1ccnc1CN(CCC(C)(C)C)C(=O)CCCC(c1cc2cc(Oc3ccccc3)ccc2nc1N)C1CCOCC1 (stereo not shown) [compound 87] | 99 | 260 | – | –
